From US11142588B2, “Polypeptides which bind C-X-C chemokine receptor type 4 (CXCR4) and methods of treating or reducing the risk of fibrosis and cancer” (AdAlta Limited, priority 2015, dated 2021)

Key:
[1] = system: Ramos tumor cells; experiment: MTT cell proliferation assay; type: cell-based, human; conditions: 24 to 72 hrs, AM3-114 at 10 μM
Procedure: The ability of the CXCR4 molecules or polypeptides disclosed herein (i-bodies) to inhibit proliferation of Ramos tumor cells, a human Burkitt's lymphoma cell line expressing CXCR4 mentioned above, in vitro was examined in a MTT cell proliferation assay as described in (Lapteva (2005) Cancer Gene Therapy 12, 84-89). Cells were grown in a 96-well tissue culture plate and treated with a vehicle or the anti-CXCR4 body. The cells were then incubated with the MTT solution for approximately 4 hours. After this incubation period, a water-insoluble formazan dye is formed. After solubilization, the formazan dye is quantitated using a scanning multi-well spectrophotometer (ELISA reader).

[2] = system: Ramos tumor cells; experiment: Apoptosis assay (annexin V / propidium iodide flow cytometry); type: cell-based, human; conditions: annexin V and propidium iodide double positive, 24 or 72 hours
Procedure: The ability of an i-body of the invention to induce apoptosis in Ramos tumor cells (a human Burkitt's lymphoma cell line) was examined in an apoptosis assay according to the methods as described in Mishra M et al (2011) J Cell Mol Med 15(11):2462-77. I-bodies were incubated with Ramos cells and examined by flow cytometry after 24 or 72 hours. The cells were stained for annexin V and propidium iodide which are classic markers for apoptosis. Cells which were double positive were assessed to have become apoptotic.

[3] = system: HIV entry into CXCR4 expressing T-cells; experiment: In vitro HIV inhibition assay; type: cell-based; conditions: Human immunodeficiency virus 1, T-cell
[4] = Bleomycin mouse model of pulmonary fibrosis; type: in vivo
Source text: The optimal dose of Bleomycin is 2 U/mouse and the optimal time for assessing fibrocyte recruitment was confirmed at day 4. At days 4 bronchoalvelolar lavage (BAL) fluids were collected for analysis of SDF-1 concentration. One half of the lung tissue was used to make single cell suspensions of the lung and the cells used for flow cytometry and assayed for CD45+, CXCR4+ and Collagen1+ (fibrocytes). The other half of the lung tissue was Sircol stained for the presence of collagen 1 and RNA will be tested for Col-1, Col-3 and SDF-1.
SDF-1, fibrocytes and collagen deposition were monitored at Day 4. Groups were dosed with the i-body just prior to administration with Bleomycin. One half of the lung tissue was minced and washed in PBS and used to make single cell suspensions of the lung with Collagenase A and dispase treatment. The cells were then used for flow cytometry and assayed for CD45+, CXCR4+ and Collagen1+ fibrocytes. […]

[5] = system: normal and IPF lung fibroblasts; experiment: Wound healing invasion assay of lung fibroblasts; type: cell-based, human
Procedure: To determine the role of CXCR4 and CXCL12 in fibroblast invasion, normal and IPF lung fibroblasts were utilized in a wound healing invasion assay. ImageLock 96 well plates (Essen Bioscience) were coated with 50 μg/ml of Basement membrane extract (BME; Trevigen) for one hour at room temperature. Normal, and fibroblasts generated from lung biopsies of idiopathic pulmonary fibrosis (IPF) patients showing slow progression or rapid progression of the disease were plated (36,000 cells per well) on the BME-coated plates and incubated overnight. […] The BME was allowed to polymerize by incubating the plate at 37° C. for 15 minutes. The plates were then inserted into an IncuCyte Zoom imaging system and images were acquired every 2 hours for approximately 50 hours. Invasion was quantified using IncuCyte software (Essen Bioscience).

[6] = system: CCL2 and CCL5 protein; experiment: CCL2, CCL5, CXCL12 ELISA of fibroblast conditioned supernatants; type: cell-based, human; conditions: 48 hours
Source text: Various reports indicate that CXCR4 signals in conjunction with other chemokine receptors, including CCR2.

[7] = cited from earlier work
[8] = system: CCRF-CEM cells; experiment: Immunohistochemistry staining of tumours in spleen and liver of SCID/bg mice; conditions: 130 μg/ml
Procedure: Tissues were fixed in 10% neutral buffered formalin overnight and subsequently transferred into tissue cassettes and placed in 70% ethanol. The tissues were then paraffin embedded. Slides containing 4 μm sections were deparaffinized and hydrated by incubating them in two changes of xylene for five min each, followed by two changes of 100% ethanol for 3 min each, 70% ethanol for 2 min, 50% ethanol for 2 min, and distilled water for 5 min. Antigen retrieval was performed by incubating the slides in 10 mM Citric acid solution (pH 6.0) in an 80° C. oven overnight. The slides were subsequently washed in PBS and permeabilized in 10% methanol containing 0.4% H2O2 for 30 min. […] All slides were subsequently stained with biotinylated anti-His tag antibodies (Miltenyi Biotech) and developed using an HRP-DAB cell and tissue staining kit according to the manufacturer's instructions (R&D systems).

c1cc(CN2CCCNCCNCCCNCC2)ccc1CN1CCCNCCNCCCNCC1 [AMD3100, reference compound]
growth of RAMOS cells [1]: able to inhibit cell growth
induction of apoptosis in Ramos cells [2]: does not induce significant apoptosis
IC50 [3]: 50 nM
recruitment of fibrocytes into the lungs ([4]; day 4, dose not given): able to block recruitment of fibrocytes
collagen content of the lung (Sircol) ([4]; positive controls, dose not stated): reduction in collagen
invasion / motility of normal, slow and rapid IPF lung fibroblast lines ([5]; AMD3100 12 μM, 21H5 130 μg/ml): had no effect
CCL2 protein in IPF fibroblast conditioned supernatants [6]: markedly increased
development of pulmonary fibrosis in irradiated mice ([7]; Shu et al 2013): did not significantly suppress
bleomycin induced pulmonary fibrosis ([7]; Xu et al 2007): effectively alleviate bleomycin induced pulmonary fibrosis

B1: AM4-272-6H: AM4-272 with 6 His tag, containing the N-terminal sequence EAEA (protein)
chain: EAEALQVDIVPSQGEISVGESKFFLCQVAGSYSDYRISWFSPNGEKLTPNQQRISVVWNDDSSSTLTIYNANIDDAGIYKCVVYRIGGYRHRYLVLGEATVNVKIFQ
modifications: left off: small tags and cut ends
induction of apoptosis in Ramos cells [2]: strongly induce apoptosis
staining of CCRF-CEM cells in spleen and liver [8]: stained CCRF-CEM cells
invasion of rapid-IPF (fast progressor) lung fibroblasts ([5]; 130 μg/ml): two out three
invasion of slow-IPF lung fibroblasts ([5]; 130 μg/ml): inhibited invasion
CCL2 protein in IPF fibroblast conditioned supernatants [6]: markedly increased
CCL5 levels in IPF lung fibroblasts [6]: increased CCL5 levels in some IPF lung fibroblasts
